Key:
[1] = target: T1, GLP-1 receptor (GLP-1R) (Homo sapiens, UniProt P43220); assay: GLP-1R activation, cAMP responsive luciferase reporter in HEK293 cells; format: cell-based; conditions: HEK293 cells expressing GLP-1R, 24 h
T1 construct: expressed in transfected cells; host or cells: HEK293 (with cAMP responsive luciferase reporter gene)
Protocol: HEK293 cells expressing surface GLP-1R and cAMP responsive luciferase reporter gene were seeded in 384 well plates at a density of 5000 cells per well. […] Subsequently, luciferase assay was performed using One-Glo luciferase reagent according manufacture's instruction (Promega).
HEK293 cells expressing surface GLP-1R and cAMP responsive luciferase reporter gene were seeded in 384 well plates at a density of 5000 cells per well. After 24 h incubation at 37° C. with 5% CO2, cells were treated with various concentrations of peptides and BLV1H12-GLP-1 clip fusion proteins and incubated for another 24 h. Subsequently, luciferase assay was performed using One-Glo luciferase reagent according manufacture's instruction (Promega).

[2] = Pharmacokinetics in mice (ELISA of blood samples); format: in vivo; conditions: 70 μg injected, BALB/c mice
Protocol: For PK study in mice, 70 μg of the immunoglobulin constructs described herein were injected into 3 BALB/c mice per group. Blood samples were drawn from time 0 to 14 days with extended intervals and analyzed by ELISA using anti-human IgG Fc antibody with horseradish peroxidase (HRP) labeled (KPL) and anti-6×His antibody (“6×His” disclosed as SEQ ID NO: 511) with HRP labeled (Clontech). Data were normalized by taking maximal concentration at the first time point (30 min).

[3] = system: mice neutrophils; assay: Neutrophil counts in mice, 10th day after injection; format: in vivo; conditions: blood stained and counted at the 10th day post-injection
Protocol: On the 10th day after injection of BLV1H12-bGCSF fusion antibodies into mice for PK study, blood samples were drawn from the mice and stained using the Diff Quick Staining Kit (Thermo Fisher Scientific, IL). Neutrophils and white blood cells were counted under microscope and the percentages of neutrophils were analyzed. FIGS. 12A-12B and Table 12 show proliferative activities of BLV1H12-bGCSF fusion antibodies on mice neutrophils that are blood stained and counted at the 10th day post-injection.

[4] = system: Mouse NFS-60 cells; assay: Proliferation assay on mouse NFS-60 cells (AlamarBlue); format: cell-based; conditions: 72 hours
Protocol: Mouse NFS-60 cells were obtained from American Type Culture Collection (ATCC), VA, and cultured in RPMI-1640 medium supplemented with 10% fetal bovine serum (FBS), 0.05 mM 2-mercapoethanol and 62 ng/ml human macrophage colony stimulating factor (M-CSF). For proliferation assay, mouse NFS-60 cells were washed three times with RPMI-1640 medium and resuspended in RPMI-1640 medium with 10% FBS and 0.05 mM 2-mercapoethanol at a density of 1.5×10^5 cells/ml. In 96-well plates, 100 μl of cell suspension was added into each well, followed by the addition of varied concentrations of bGCSF, BLV1H12 antibody, and the immunoglobulin constructs described herein, Equal volume of PBS buffer was added into the control wells. The plates were incubated at 37° C. in a 5% CO2 incubator for 72 hours. Cells were then treated with AlamarBlue (Invitrogen) ( 1/10 volume of cell suspension) for 4 hours at 37° C. Fluorescence at 595 nm for each well was read to indicate the cell viability.

[5] = system: Human mPB CD34+ cells; assay: Proliferative activity on human granulocyte progenitors (flow cytometry); format: cell-based; conditions: 7 days, flow cytometry
Protocol: Human mPB CD34^+ cells were purchased from AllCells. Cells were resuspended in HSC expansion medium (StemSpan SFEM, StemCell Technologies) supplemented with 1× antibiotics and the following recombinant human cytokines: thrombopoietin, IL6, Flt3 ligand, and stem cell factor (100 ng/mL, R & D Systems), then plated in 96-well plates (1000 cells per well), with varied concentrations of BLV1H12-bGCSF fusion antibodies. Cells were cultured for 7 days at 37° C. in a 5% CO2 incubator, then analyzed by flow cytometry to measure cell number and expression of CD45ra and CD41. Cells were stained in staining medium (HBSS supplemented with 2% FBS and 2 mM EDTA) at 4° C. for 1 h with PECy7 anti-CD45ra and eFluor 450 anti-CD41 (eBiosciences), then washed with staining medium and analyzed. Multicolor analysis for cell phenotyping was performed on a LSR II flow cytometer (Becton Dickinson). FIGS. 10A-10E and Tables 9-10 show the human granulocyte progenitor cell proliferative activities of the Ab-GCSF fusion antibodies.

T1 sequence (P43220 24-463, species assumed): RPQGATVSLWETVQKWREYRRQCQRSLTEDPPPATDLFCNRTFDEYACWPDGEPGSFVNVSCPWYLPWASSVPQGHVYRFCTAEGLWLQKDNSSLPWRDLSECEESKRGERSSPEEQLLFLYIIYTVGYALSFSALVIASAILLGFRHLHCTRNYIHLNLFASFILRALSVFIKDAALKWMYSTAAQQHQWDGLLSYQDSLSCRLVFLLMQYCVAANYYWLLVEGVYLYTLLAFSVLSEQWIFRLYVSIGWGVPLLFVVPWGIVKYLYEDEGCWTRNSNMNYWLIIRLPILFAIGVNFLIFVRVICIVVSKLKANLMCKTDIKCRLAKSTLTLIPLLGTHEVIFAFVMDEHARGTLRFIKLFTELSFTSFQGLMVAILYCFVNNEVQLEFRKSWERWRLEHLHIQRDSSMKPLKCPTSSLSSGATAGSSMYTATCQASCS

Ab-Ex4: Exendin-4 with Factor Xa site and GGGGS linkers grafted into CDR3H of BLV1H12
RLU (cAMP responsive luciferase reporter) ([1]; 1.26953 nM): 6120 RLU | RLU (cAMP responsive luciferase reporter) ([1]; 2.53906 nM): 6360 RLU | RLU (cAMP responsive luciferase reporter) ([1]; 5.07813 nM): 8500 RLU | RLU (cAMP responsive luciferase reporter) ([1]; 10.15625 nM): 10420 RLU | RLU (cAMP responsive luciferase reporter) ([1]; 20.3125 nM): 19340 RLU | RLU (cAMP responsive luciferase reporter) ([1]; 40.625 nM): 27960 RLU | RLU (cAMP responsive luciferase reporter) ([1]; 81.25 nM): 54800 RLU | RLU (cAMP responsive luciferase reporter) ([1]; 162.5 nM): 90660 RLU | RLU (cAMP responsive luciferase reporter) ([1]; 325 nM): 117900 RLU | RLU (cAMP responsive luciferase reporter) ([1]; 650 nM): 134760 RLU | RLU (cAMP responsive luciferase reporter) ([1]; 1300 nM): 159660 RLU

Ab-bGCSF L1: bovine G-CSF replacing the knob domain of BLV1H12 CDR3H with GGGGS linkers on both ends (n=1), SEQ ID NO: 5
Percentage (blood level normalized to first time point, 30 min) ([2]; day 0.021): 100.00% | Percentage (blood level normalized to first time point, 30 min) ([2]; day 0.042): 102.12% | Percentage (blood level normalized to first time point, 30 min) ([2]; day 0.083): 104.03% | Percentage (blood level normalized to first time point, 30 min) ([2]; day 0.125): 101.71% | Percentage (blood level normalized to first time point, 30 min) ([2]; day 0.250): 93.90% | Percentage (blood level normalized to first time point, 30 min) ([2]; day 1.000): 59.26% | Percentage (blood level normalized to first time point, 30 min) ([2]; day 2.000): 56.66% | Percentage (blood level normalized to first time point, 30 min) ([2]; day 3.000): 39.09% | Percentage (blood level normalized to first time point, 30 min) ([2]; day 8.000): 22.21% | Percentage (blood level normalized to first time point, 30 min) ([2]; day 10.000): 21.15% | Percentage (blood level normalized to first time point, 30 min) ([2]; day 14.000): 21.41% | Percentage of Neutrophil [3]: 25.32 | F.I. (fluorescence at 595 nm, AlamarBlue, cell viability) ([4]; 0.09808 ng/mL): 1412.387 | F.I. (fluorescence at 595 nm, AlamarBlue, cell viability) ([4]; 0.29424 ng/mL): 1654.776 | F.I. (fluorescence at 595 nm, AlamarBlue, cell viability) ([4]; 0.88272 ng/mL): 2082.718 | F.I. (fluorescence at 595 nm, AlamarBlue, cell viability) ([4]; 2.64816 ng/mL): 2550.674 | F.I. (fluorescence at 595 nm, AlamarBlue, cell viability) ([4]; 7.94449 ng/mL): 2997.807 | F.I. (fluorescence at 595 nm, AlamarBlue, cell viability) ([4]; 23.83346 ng/mL): 3277.812 | F.I. (fluorescence at 595 nm, AlamarBlue, cell viability) ([4]; 71.50039 ng/mL): 3308.383 | F.I. (fluorescence at 595 nm, AlamarBlue, cell viability) ([4]; 214.50117 ng/mL): 3868.075 | Number of CD45RA-CD41- ([5]; 0.30483 ng/mL): 4070 | Number of CD45RA-CD41- ([5]; 0.91449 ng/mL): 3601 | Number of CD45RA-CD41- ([5]; 2.74348 ng/mL): 4303 | Number of CD45RA-CD41- ([5]; 8.23045 ng/mL): 6404 | Number of CD45RA-CD41- ([5]; 24.69136 ng/mL): 9122 | Number of CD45RA-CD41- ([5]; 74.07407 ng/mL): 11200 | Number of CD45RA-CD41- ([5]; 222.22222 ng/mL): 11000 | Number of CD45RA-CD41- ([5]; 666.66667 ng/mL): 11400 | Number of CD45RA-CD41- ([5]; 2000 ng/mL): 11400 | Number of CD45RA-CD41- ([5]; 6000 ng/mL): 13200

Ab-bGCSF L0: bovine G-CSF replacing the knob domain of BLV1H12 CDR3H, no linker (n=0), SEQ ID NO: 4
Percentage (blood level normalized to first time point, 30 min) ([2]; day 0.021): 100.00% | Percentage (blood level normalized to first time point, 30 min) ([2]; day 0.042): 91.12% | Percentage (blood level normalized to first time point, 30 min) ([2]; day 0.083): 91.24% | Percentage (blood level normalized to first time point, 30 min) ([2]; day 0.125): 91.56% | Percentage (blood level normalized to first time point, 30 min) ([2]; day 0.250): 61.22% | Percentage (blood level normalized to first time point, 30 min) ([2]; day 1.000): 44.22% | Percentage (blood level normalized to first time point, 30 min) ([2]; day 2.000): 36.36% | Percentage (blood level normalized to first time point, 30 min) ([2]; day 3.000): 27.38% | Percentage (blood level normalized to first time point, 30 min) ([2]; day 8.000): 11.53% | Percentage (blood level normalized to first time point, 30 min) ([2]; day 10.000): 12.44% | Percentage (blood level normalized to first time point, 30 min) ([2]; day 14.000): 14.35% | Percentage of Neutrophil [3]: 25.05 | F.I. (fluorescence at 595 nm, AlamarBlue, cell viability) ([4]; 0.09876 ng/mL): 1328 | F.I. (fluorescence at 595 nm, AlamarBlue, cell viability) ([4]; 0.29627 ng/mL): 1436 | F.I. (fluorescence at 595 nm, AlamarBlue, cell viability) ([4]; 0.88881 ng/mL): 1734.765 | F.I. (fluorescence at 595 nm, AlamarBlue, cell viability) ([4]; 2.66642 ng/mL): 2189 | F.I. (fluorescence at 595 nm, AlamarBlue, cell viability) ([4]; 7.99927 ng/mL): 2680 | F.I. (fluorescence at 595 nm, AlamarBlue, cell viability) ([4]; 23.9978 ng/mL): 2899 | F.I. (fluorescence at 595 nm, AlamarBlue, cell viability) ([4]; 71.9934 ng/mL): 2921 | F.I. (fluorescence at 595 nm, AlamarBlue, cell viability) ([4]; 215.9802 ng/mL): 3416 | Number of CD45RA-CD41- ([5]; 0.14225 ng/mL): 2601 | Number of CD45RA-CD41- ([5]; 0.42676 ng/mL): 2253 | Number of CD45RA-CD41- ([5]; 3.84088 ng/mL): 4399 | Number of CD45RA-CD41- ([5]; 11.52263 ng/mL): 7262 | Number of CD45RA-CD41- ([5]; 34.5679 ng/mL): 9902 | Number of CD45RA-CD41- ([5]; 103.7037 ng/mL): 11500 | Number of CD45RA-CD41- ([5]; 311.11111 ng/mL): 11500 | Number of CD45RA-CD41- ([5]; 933.33333 ng/mL): 11900 | Number of CD45RA-CD41- ([5]; 2800 ng/mL): 12100
